Laboratory results: patent US7745459B2, “Quinolizinone compound and use thereof as HIV integrase inhibitor” (Japan Tobacco Inc., priority 2004, dated 2010)

Target: T1, HIV integrase (Human immunodeficiency virus type 1 group M subtype B, UniProt P12497, F1332H)
T1 construct: HIV integrase full length gene; made in house; host or cells: Escherichia coli BL21 (DE3)
Experiment: Determination of enzyme (HIV integrase) inhibitory activity
Type: biochemical
Conditions: recombinant integrase protein (phenylalanine at codon 185 substituted by histidine); donor/target DNA, absorbance at 450 nm; read-out: Anti-integrase activity (IC50 value)
From the text: The following explains evaluation methods of the HIV integrase inhibitory activity of the compound of the present invention.
HIV integrase full length gene (J. Virol., 67, 425-437 (1993)) in which phenylalanine at codon 185 was substituted by histidine, was inserted between the restriction enzyme NdeI and XhoI sites of plasmid pET21a(+) (Novagen), whereby an integrase expression vector pET21a-INH was constructed.
Escherichia coli recombinant BL21 (DE3) transformed with plasmid pET21a-INH obtained in (i) was shake cultured at 37° C. in a liquid medium containing ampicillin. When the culture reached the logarithmic growth phase, isopropyl-β-D-thiogalactopyranoside was added to promote expression of integrase gene. The culture was continued for 3 hr to promote accumulation of the integrase protein. The recombinant E. coli was collected in pellets by centrifugal separation and preserved at −80° C.
The E. coli was suspended in Lysis buffer (20 mM HEPES (pH 7.5), 5 mM DTT, 10 mM CHAPS, 10% glycerol) containing 1 M sodium chloride and subjected to repeat pressurization and depressurization for rupture, and centrifugal separation at 4° C., 40,000×g, 60 min to recover a water-soluble fraction (supernatant). This was diluted 10-fold with Lysis buffer free of sodium chloride, mixed with SP-Sepharose (Pharmacia Corporation) and stirred at 4° C. for 60 min to allow adsorption of integrase protein to the resin. The resin was washed with Lysis buffer containing 100 mM sodium chloride and the integrase protein was eluted with Lysis buffer containing 1 M sodium chloride.
The eluted integrase protein solution was subjected to a Superdex 75 (Pharmacia Corporation) column for gel filtration. The protein was eluted with Lysis buffer containing 1 M sodium chloride.
The obtained fractions of the integrase protein were collected and preserved at −80° C.
The following DNA synthesized by Greiner was dissolved in TE buffer (10 mM Tris-hydrochloric acid (pH 8.0), 1 mM EDTA) and mixed with donor DNA, target DNA, and each complementary strand (+ and − strands) to 1 μM. The mixture was heated at 95° C. for 5 min, 80° C. for 10 min, 70° C. for 10 min, 60° C. for 10 min, 50° C. for 10 min and 40° C. for 10 min and kept at 25° C. to give a double stranded DNA, which was used for the test.
The donor DNA was diluted with TE buffer to 10 nM, of which 50 μl was added to each well of streptavidin-coated microtiter plate (Roche) and allowed to adsorb at 37° C. for 60 min. The plate was washed with phosphate buffer (Dulbecco's PBS, Sanko Junyaku Co., Ltd.) containing 0.1% Tween 20 and phosphate buffer. Then, a reaction mixture (70 μl) having the following composition, a test substance (10 μl) diluted with the reaction mixture and 100 μg/ml integrase protein (10 μl) were added to each well and reacted at 37° C. for 60 min. Composition of the reaction mixture: 30 mM MOPS (3-morpholinopropanesulfonic acid), 5 mM magnesium chloride, 3 mM DTT (dithiothreitol), 0.1 mg/ml BSA (bovine serum albumin), 5% glycerol, 10% DMSO (dimethyl sulfoxide), 0.01% Tween 20.
Then, 50 nM target DNA (10 μl) was added, and the mixture was reacted at 37° C. for 10 min and washed with phosphate buffer containing 0.1% Tween 20 to stop the reaction.
Then, 100 mU/ml peroxidase labeled anti-digoxigenin antibody solution (Roche, 100 μl) was added, and the mixture was reacted at 37° C. for 60 min, followed by washing with phosphate buffer containing 0.1% Tween 20.
A peroxidase color solution (Bio Rad, 100 μl) was added and allowed to react at room temperature for 4 min. The color reaction was stopped by adding 1N sulfuric acid (100 μl). The absorbance at 450 nm was measured. […]

SMILES	IC50 [nM]
CN(Cc1cc(C(=O)O)c(=O)n2cc(Cc3cccc(Cl)c3F)ccc12)C(=O)OC(C)(C)C [Example 41, 1-[(N-(tert-butoxycarbonyl)-N-methylamino)methyl]-7-(3-chloro-2-fluorobenzyl)-4-oxo-4H-quinolizine-3-carboxylic acid]	10 to 100
CCC(=O)NCc1cc(C(=O)O)c(=O)n2cc(Cc3cccc(Cl)c3F)ccc12 [Example 42, 7-(3-chloro-2-fluorobenzyl)-4-oxo-1-(propionylaminomethyl)-4H-quinolizine-3-carboxylic acid]	10 to 100
CCCC(=O)NCc1cc(C(=O)O)c(=O)n2cc(Cc3cccc(Cl)c3F)ccc12 [Example 43, 1-(butyrylaminomethyl)-7-(3-chloro-2-fluorobenzyl)-4-oxo-4H-quinolizine-3-carboxylic acid]	10 to 100
CC(C)C(=O)NCc1cc(C(=O)O)c(=O)n2cc(Cc3cccc(Cl)c3F)ccc12 [Example 44, 7-(3-chloro-2-fluorobenzyl)-1-(isobutyrylaminomethyl)-4-oxo-4H-quinolizine-3-carboxylic acid]	10 to 100
O=C(NCc1cc(C(=O)O)c(=O)n2cc(Cc3cccc(Cl)c3F)ccc12)c1ccccc1 [Example 45, 1-(benzoylaminomethyl)-7-(3-chloro-2-fluorobenzyl)-4-oxo-4H-quinolizine-3-carboxylic acid]	10 to 100
CCOC(=O)NCc1cc(C(=O)O)c(=O)n2cc(Cc3cccc(Cl)c3F)ccc12 [Example 46, 7-(3-chloro-2-fluorobenzyl)-1-(ethoxycarbonylaminomethyl)-4-oxo-4H-quinolizine-3-carboxylic acid]	10 to 100
O=C(O)c1cc(CNC(=O)N2CCOCC2)c2ccc(Cc3cccc(Cl)c3F)cn2c1=O [Example 47, 7-(3-chloro-2-fluorobenzyl)-1-([(morpholinocarbonyl)amino]methyl)-4-oxo-4H-quinolizine-3-carboxylic acid]	10 to 100
CCNC(=O)NCc1cc(C(=O)O)c(=O)n2cc(Cc3cccc(Cl)c3F)ccc12 [Example 48, 7-(3-chloro-2-fluorobenzyl)-1-[(3-ethylureido)methyl]-4-oxo-4H-quinolizine-3-carboxylic acid]	10 to 100
O=C(Cc1ccccc1)NCc1cc(C(=O)O)c(=O)n2cc(Cc3cccc(Cl)c3F)ccc12 [Example 49, 7-(3-chloro-2-fluorobenzyl)-4-oxo-1-(phenylacetylaminomethyl)-4H-quinolizine-3-carboxylic acid]	10 to 100
O=C(O)C(=O)NCc1cc(C(=O)O)c(=O)n2cc(Cc3cccc(Cl)c3F)ccc12 [Example 50, 7-(3-chloro-2-fluorobenzyl)-1-[(oxalylamino)methyl]-4-oxo-4H-quinolizine-3-carboxylic acid]	10 to 100
O=C(COc1ccccc1)NCc1cc(C(=O)O)c(=O)n2cc(Cc3cccc(Cl)c3F)ccc12 [Example 51, 7-(3-chloro-2-fluorobenzyl)-4-oxo-1-[(2-phenoxyacetylamino)methyl]-4H-quinolizine-3-carboxylic acid]	10 to 100
CO[C@@H](C)C(=O)NCc1cc(C(=O)O)c(=O)n2cc(Cc3cccc(Cl)c3F)ccc12 [Example 52, 7-(3-chloro-2-fluorobenzyl)-1-[((S)-2-methoxypropionylamino)methyl]-4-oxo-4H-quinolizine-3-carboxylic acid]	10 to 100
CO[C@H](C)C(=O)NCc1cc(C(=O)O)c(=O)n2cc(Cc3cccc(Cl)c3F)ccc12 [Example 53, 7-(3-chloro-2-fluorobenzyl)-1-[((R)-2-methoxypropionylamino)methyl]-4-oxo-4H-quinolizine-3-carboxylic acid]	10 to 100
O=C(O)CCC(=O)NCc1cc(C(=O)O)c(=O)n2cc(Cc3cccc(Cl)c3F)ccc12 [Example 54, 1-[(3-carboxypropionylamino)methyl]-7-(3-chloro-2-fluorobenzyl)-4-oxo-4H-quinolizine-3-carboxylic acid]	10 to 100
CCOCC(=O)NCc1cc(C(=O)O)c(=O)n2cc(Cc3cccc(Cl)c3F)ccc12 [Example 55, 7-(3-chloro-2-fluorobenzyl)-1-[(2-ethoxyacetylamino)methyl]-4-oxo-4H-quinolizine-3-carboxylic acid]	10 to 100
COC(C)(C)C(=O)NCc1cc(C(=O)O)c(=O)n2cc(Cc3cccc(Cl)c3F)ccc12 [Example 56, 7-(3-chloro-2-fluorobenzyl)-1-[(2-methoxy-2-methylpropionylamino)methyl]-4-oxo-4H-quinolizine-3-carboxylic acid]	100 to 1000
CC(=O)NCC(=O)NCc1cc(C(=O)O)c(=O)n2cc(Cc3cccc(Cl)c3F)ccc12 [Example 57, 1-[(2-acetylaminoacetylamino)methyl]-7-(3-chloro-2-fluorobenzyl)-4-oxo-4H-quinolizine-3-carboxylic acid]	100 to 1000
COCOc1cc(C(=O)O)c(=O)n2cc(Cc3cccc(Cl)c3F)ccc12 [Example 58, 7-(3-chloro-2-fluorobenzyl)-1-methoxymethoxy-4-oxo-4H-quinolizine-3-carboxylic acid]	100 to 1000
CCOC(=O)c1cc(NC(=O)OC(C)(C)C)c2ccc(Cc3cccc(Cl)c3F)cn2c1=O [Example 60, ethyl 1-(tert-butoxycarbonylamino)-7-(3-chloro-2-fluorobenzyl)-4-oxo-4H-quinolizine-3-carboxylate]	100 to 1000
CC(=O)Nc1cc(C(=O)O)c(=O)n2cc(Cc3cccc(Cl)c3F)ccc12 [Example 61, 1-acetylamino-7-(3-chloro-2-fluorobenzyl)-4-oxo-4H-quinolizine-3-carboxylic acid]	100 to 1000
CC(C)(C)OC(=O)c1cc(C(=O)O)c(=O)n2cc(Cc3cccc(Cl)c3F)ccc12 [Example 62, 7-(3-chloro-2-fluorobenzyl)-4-oxo-4H-quinolizine-1,3-dicarboxylic acid 1-tert-butyl ester]	100 to 1000
CC(C)[C@@H](CO)c1cc(C(=O)O)c(=O)n2cc(Cc3cccc(Cl)c3Cl)ccc12 [Example 63, 7-(2,3-dichlorobenzyl)-1-((R)-1-hydroxymethyl-2-methylpropyl)-4-oxo-4H-quinolizine-3-carboxylic acid]	< 10
CC(C)(C)[C@@H](CO)c1cc(C(=O)O)c(=O)n2cc(Cc3cccc(Cl)c3Cl)ccc12 [Example 64, 7-(2,3-dichlorobenzyl)-1-((R)-1-hydroxymethyl-2,2-dimethylpropyl)-4-oxo-4H-quinolizine-3-carboxylic acid]	< 10
